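Tested at 5 concentrations; 48 h exposure; 96-well plates; endpoints linearly interpolated, else capped at highest concentration. GI50 marks 50% less growth. TGI: concentration producing complete growth inhibition.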
Legend:
Test in all cases: NCI-60 cell line screen, 48 h
SF-268 CNS = test system: SF-268 CNS
RXF 393 renal = test system: RXF 393 renal
PC-3 prostate = test system: PC-3 prostate
SF-539 CNS = test system: SF-539 CNS
KM12 colon = test system: KM12 colon
SR leukemia = test system: SR leukemia
CAKI-1 renal = test system: CAKI-1 renal
HOP-92 NSCLC = test system: HOP-92 NSCLC
NCI-H460 lung = test system: NCI-H460 lung
M14 melanoma = test system: M14 melanoma

SMILES | TGI (SF-268 CNS) | TGI (RXF 393 renal) | TGI (PC-3 prostate) | TGI (SF-539 CNS) | TGI (KM12 colon) | TGI (SR leukemia) | TGI (CAKI-1 renal) | TGI (HOP-92 NSCLC) | TGI (NCI-H460 lung) | TGI (M14 melanoma) | GI50 (SF-268 CNS) | GI50 (RXF 393 renal) | GI50 (PC-3 prostate) | GI50 (SF-539 CNS) | GI50 (KM12 colon) | GI50 (SR leukemia) | GI50 (HOP-92 NSCLC) | GI50 (NCI-H460 lung) | GI50 (M14 melanoma) | GI50 (CAKI-1 renal)
OC(C1=C/C(=C\c2ccncc2)c2ccccc21)c1ccncc1 (stereo not given) | 57.3 µM | 30.6 µM | 32.9 µM | 32 µM | 35.1 µM | 29.1 µM | > 49.5 µM | 49.7 µM | 28.2 µM | 27.8 µM |  |  |  |  |  |  |  |  |  | 
c1cc2c(cc1C(N1CCNCC1)N1CCNCC1)OCO2 | > 100 µM | > 100 µM | > 100 µM | > 100 µM | > 100 µM | > 100 µM | > 100 µM | > 100 µM | > 100 µM | > 100 µM |  |  |  |  |  |  |  |  |  | 
CC(=O)OCSc1ncnc2c1ncn2CN1CCOCC1 | > 100 µM | > 100 µM |  | > 100 µM | > 100 µM | > 100 µM | > 100 µM | > 100 µM | > 100 µM | > 100 µM |  |  |  |  |  |  |  |  |  | 
O=C(NC1CC1)c1ccc(-c2nc3ccc4[nH]ncc4c3c3c2CCCC3)cc1 | 14 µM | 4.03 µM | 29.7 µM | 6.68 µM | 9.65 µM | 6.02 µM |  | 25.2 µM | 12.2 µM | 10.4 µM | 1.87 µM | 0.967 µM | 2.29 µM | 1.32 µM | 1.51 µM | 0.987 µM | 1.45 µM | 2.05 µM | 2.33 µM | 
CCN1C(=O)N(CC)C2C1NN=c1s/c(=C3\C(=O)N(CC(C)C)c4ccccc43)c(=O)n12 (stereo not given) | > 59.9 µM | 2.45 µM | > 100 µM | 1.66 µM | > 100 µM | > 100 µM | > 100 µM | > 64.1 µM | > 100 µM | > 100 µM | 1.32 µM | 0.335 µM | 0.514 µM | 0.327 µM | 0.418 µM | 0.522 µM | 4.04 µM | 0.471 µM | 0.445 µM | 0.522 µM
COc1ccc(C2S/C(=C\c3cc(OC)c(OC)c(OC)c3)C(=O)N2NC(=O)Cc2ccccc2)cc1 (stereo not given) | > 100 µM | > 100 µM |  | > 100 µM | > 100 µM | > 100 µM | > 100 µM | > 100 µM | > 100 µM | > 100 µM |  |  |  |  |  |  |  |  |  | 
COC1/C=C\C=C(/C)C(=O)Nc2cc3nc4ccc(Br)cc4oc-3c(c2=O)CC(C)CC(OC)C(O)C(C)/C=C(\C)C1OC(N)=O (stereo not given) | 18.1 µM | 8.61 µM | 24.5 µM | 11.3 µM | 13.4 µM | 0.634 µM | 16.3 µM | 4.81 µM | 17.9 µM | 5.33 µM |  |  | 0.00574 µM | 0.00745 µM |  | 0.00272 µM | 0.00757 µM | 0.00446 µM | 0.00414 µM | 
CCC1=C[C@@H]2CN(C1)Cc1c([nH]c3ccccc13)[C@@](C(=O)OC)(c1cc3c(cc1OC)N(C=O)[C@H]1[C@@](O)(C(=O)OC)[C@H](OC(C)=O)[C@]4(CC)[C@@H]5C[C@@H]5CN5CC[C@]31[C@@H]54)C2 | > 6.25 µM | > 6.25 µM | > 6.25 µM | 0.0201 µM |  |  | > 6.25 µM | 0.226 µM | > 6.25 µM | 0.0643 µM | 0.00111 µM | 0.00155 µM | 0.000826 µM | 0.000646 µM | < 0.000625 µM | < 0.000625 µM | 0.00629 µM | 0.00135 µM | 0.00169 µM | 0.253 µM
N=C1c2nc3n(c2C(=O)c2nc4n(c21)CCCC4)CCCC3 | > 74.9 µM | 51 µM | > 100 µM | 5.2 µM | > 100 µM | > 79.3 µM | > 83.2 µM | > 100 µM | 3.54 µM | 3.29 µM | 11.9 µM | 15.8 µM | > 68.8 µM | 2.42 µM | 16.6 µM | 13.4 µM | 52.8 µM | 1.59 µM | 1.82 µM | 19.1 µM
COc1ccc(/C=C2\CN(C(=O)C(Cl)Cl)C/C(=C\c3ccc(OC)c(OC)c3)C2=O)cc1OC | > 100 µM | 0.492 µM | 2.4 µM |  | 0.332 µM | > 100 µM | 1.98 µM | 3.79 µM | 1.72 µM | 0.356 µM | 2.42 µM | 0.209 µM | 0.301 µM |  | 0.0987 µM | 0.0352 µM | 0.532 µM | 0.371 µM | 0.0926 µM | 0.368 µM
COc1cc(NC(=O)c2cc(OC)c3ccn(C)c3c2)cc2c1C[C@]1(C)CC[C@@H](O)C(C)(C)[C@H]1O2 | > 100 µM | 4.28 µM | > 100 µM | 18.8 µM | > 100 µM | > 100 µM |  | 32.3 µM | > 100 µM | 14 µM | 9.09 µM | 0.759 µM | 6.17 µM | 1.37 µM | 9.92 µM | 2.96 µM | 4.11 µM | 5.24 µM | 2.91 µM | 
OCC(O)C(O)C(O)C1SC(c2ccccc2)=NN1c1ccccc1 (stereo not given) | > 97.3 µM | 47.9 µM | > 100 µM | 98.7 µM | > 100 µM | > 100 µM | > 100 µM | 63.4 µM | > 100 µM | > 100 µM |  |  |  |  |  |  |  |  |  | 
CC(C)=CC(=O)Oc1ccc([N+](=O)[O-])cc1 | > 100 µM | > 100 µM |  | > 100 µM | > 100 µM | > 100 µM | 53.8 µM | > 100 µM | > 100 µM | > 100 µM |  |  |  |  |  |  |  |  |  | 
COC(=O)COc1ccc(/C=C2\N=C(c3ccccc3)N(c3cc(C(F)(F)F)ccc3Cl)C2=O)cc1 | > 100 µM | > 100 µM | > 100 µM | > 100 µM | > 100 µM | 54.9 µM | > 100 µM | > 100 µM | > 100 µM | > 100 µM | 48.4 µM | > 100 µM | 44.8 µM | 36 µM | 42.3 µM | 19.3 µM | 75.9 µM | > 100 µM | 50.6 µM | > 100 µM
Cc1ccccc1CN1CC2=C(CCN(Cc3ccccc3)C2=O)N2CCN=C12 | > 100 µM | > 100 µM | > 100 µM | > 14.1 µM | > 100 µM | > 100 µM | > 100 µM | > 100 µM | > 100 µM | > 100 µM |  |  |  |  |  |  |  |  |  | 

Reference: PubChem BioAssay (NCI)
